Results taken from ChEMBL document CHEMBL6153084, “The development of α, β-unsaturated lactam-based andrographolide derivatives as anti-gastric cancer agents with the ability of inhibiting the ERK/c-Fos/Jun pathway” (Eur J Med Chem, 2025).
Calls of active or inactive are those of the source. The rule behind the calls is not given here.

What was measured:
MCF7 = test: Antiproliferative activity against human MCF7 cells assessed as inhibition of cell growth incubated for 24 to 72 hrs by MTT assay; format: functional, cell-based; conditions: time 24-72 hrs
MGC-803 [1] = test: Antiproliferative activity against human MGC-803 cells assessed as inhibition of cell growth upto 2.5 uM by MTT assay; format: functional, cell-based; conditions: time 24-72 hrs
[2] = Potency index, ratio of andrographolide IC50 to test compound IC50 for antiproliferative activity against human MGC-803 cells assessed as inhibition of cell growth incubated for 24 to 72 hrs by MTT assay; format: functional; conditions: time 24-72 hrs
MGC-803 [3] = test: Induction of cell cycle arrest in human MGC-803 cells assessed as accumulation of cells at G2/M phase at 0.25 uM incubated for 48 hrs by PI staining based flow cytometry analysis; format: functional
MGC-803 [4] = test: Induction of apoptosis in human MGC-803 cells assessed as viable cells at 1 uM incubated for 48 hrs by Annexin V-FITC/PI staining based flow cytometry analysis (reference value: 93.9%); format: functional; conditions: read-out: Activity
MGC-803 [5] = test: Induction of apoptosis in human MGC-803 cells assessed as necrotic cells at 1 uM incubated for 48 hrs by Annexin V-FITC/PI staining based flow cytometry analysis (reference value: 0.83%); format: functional
MGC-803 [6] = test: Induction of apoptosis in human MGC-803 cells assessed as early apoptotic cells at 2 uM incubated for 48 hrs by Annexin V-FITC/PI staining based flow cytometry analysis (reference value: 0.30%); format: functional
MGC-803 [7] = test: Induction of apoptosis in human MGC-803 cells assessed as late apoptotic cells at 2 uM incubated for 48 hrs by Annexin V-FITC/PI staining based flow cytometry analysis (reference value: 0.98%); format: functional
MGC-803 [8] = test: Induction of apoptosis in human MGC-803 cells assessed as viable cells at 4 uM incubated for 48 hrs by Annexin V-FITC/PI staining based flow cytometry analysis (reference value: 93.9%); format: functional; conditions: read-out: Activity
MGC-803 [9] = test: Induction of apoptosis in human MGC-803 cells assessed as upregulation of Bax expression at 1 to 4 uM incubated for 24 hrs by Western blot analysis; format: functional, cell-based; conditions: dose 1-4 µM
MGC-803 [10] = test: Downregulation of c-FOS level in human MGC-803 cells at 4 uM incubated for 24 hrs by immunoblotting analysis; format: functional, cell-based
MGC-803 [11] = test: Downregulation of c-jun level in human MGC-803 cells at 4 uM incubated for 24 hrs by immunoblotting analysis; format: functional, cell-based
MGC-803 [12] = test: Downregulation of ACAT2 mRNA level in human MGC-803 cells at 4 uM incubated for 24 hrs by RT-qPCR analysis; format: functional, cell-based
MGC-803 [13] = test: Antitumor activity against human MGC-803 cells xenografted in BALB/c mouse assessed as inhibition of tumor growth at 25 to 50 mg/kg, IG administered for 14 days; format: functional, organism-based; conditions: dose 25-50 mg/kg, time 14.0 day
[14] = Toxicity in BALB/c mouse implanted with human MGC-803 cells assessed as body weight loss at 25 to 50 mg/kg, IG; format: organism-based; conditions: in vivo, po, dose 25-50 mg/kg

## C=C1CC[C@@H]2[C@](C)(CO)[C@H](O)CC[C@@]2(C)[C@@H]1/C=C/C1=CC(=C/c2ccc(C)cc2)/NC1=O
MCF7
  Activity: inactive
MGC-803 [1]
  Activity: Time-dependent-effect
[2]
  Ratio IC50: ~14
MGC-803 [3]
  Activity: 9.59%
MGC-803 [4]
  viability at 1 µM: 71.9%
MGC-803 [5]
  Activity: 12.6%
MGC-803 [6]
  Activity: 5.47%
MGC-803 [7]
  Activity: 41.5%
MGC-803 [8]
  viability at 4 µM: 16%
MGC-803 [9]
  Activity: Active
MGC-803 [10]
  Activity: Active
MGC-803 [11]
  Activity: Active
MGC-803 [12]
  Activity: Active
MGC-803 [13]
  TGI: Active
[14]
  Activity: Non-toxic
